One experiment addresses human ACC1 (Homo sapiens, UniProt Q13085). Put plainly: Acetyl CoA carboxylase (ACC) activity inhibition test, human ACC1. It is filed as biochemical. To be noted: 1 μmol/liter compound; [14C] bicarbonate fixation, 37° C., 40 minutes; read-out: Inhibition (%) by 1 μmol/liter Chemical, human ACC1. On the procedure:
(§1) A. Pharmacological Test Example (Acetyl CoA Carboxylase (ACC) Activity Inhibition Test)
(§2) A test compound is dissolved in dimethyl sulfoxide (DMSO) to a concentration of 10 mM and then diluted with DMSO to give a 100-fold concentrated solution of the compound compared with target assay concentration. The ACC enzyme activity inhibition test is carried out according to a modification of Thampy & Wakil's method (J. Biol. Chem., Vol. 260, pp. 6318-6323 (1985)). Concretely, 0.8 μl of the diluted test compound is added to each well of 96-well assay plate (Perkin Elmer Opti Plate), then 40 μl of a substrate solution (50 mM Hepes sodium (pH 7.5), 2 mM DTT, 10 mM ATP, 500 μM acetyl CoA, 0.17 mM NaH[^14C]O3 (58 mCi/mmol, by Amersham), 8 mM NaHCO3) is added to each well, and 40 μL of an enzyme solution ([…] human ACC1 or human ACC2, 50 mM Hepes sodium (pH 7.5), 2 mM DTT, 40 mM MgCl2, 40 mM tripotassium citrate 1 mg/ml fetal bovine serum albumin) is added thereto. Then, the upper side of the plate is sealed up, and the plate is incubated with gently stirring at 37° C. for 40 minutes. Next, 20 μl of 1 N HCl is added to each well to stop the enzyme reaction, and the assay plate is stirred overnight to remove the unreacted NaH[^14C]O3. Next, 100 μl of a scintillator (Perkin Elmer's Microscinti 40) is added to each well and the plate is stirred, then the radioactivity of the fixed [^14C] is counted using a microplate scintillation counter (Perkin Elmer's Topcount), the radioactivity of which represents the enzyme activity in each well. The human ACC1 and human ACC2 enzyme-inhibition activities of the test compounds are calculated, based on the radioactivity of the well added by DMSO without test compound as a control.

Another experiment addresses human ACC2 (Homo sapiens, UniProt O00763). The experiment is described as follows: Acetyl CoA carboxylase (ACC) activity inhibition test, human ACC2. It is filed as biochemical. To be noted: 1 μmol/liter compound; [14C] bicarbonate fixation, 37° C., 40 minutes; read-out: Inhibition (%) by 1 μmol/liter Chemical, human ACC2. How it is done: as §1, §2

Among the data in patent US8138197B2, “Spirochromanon derivatives” (MSD K.K., priority 2007, dated 2012) are inhibition values, retold here.

Sequence of human ACC2 (O00763 whole entry): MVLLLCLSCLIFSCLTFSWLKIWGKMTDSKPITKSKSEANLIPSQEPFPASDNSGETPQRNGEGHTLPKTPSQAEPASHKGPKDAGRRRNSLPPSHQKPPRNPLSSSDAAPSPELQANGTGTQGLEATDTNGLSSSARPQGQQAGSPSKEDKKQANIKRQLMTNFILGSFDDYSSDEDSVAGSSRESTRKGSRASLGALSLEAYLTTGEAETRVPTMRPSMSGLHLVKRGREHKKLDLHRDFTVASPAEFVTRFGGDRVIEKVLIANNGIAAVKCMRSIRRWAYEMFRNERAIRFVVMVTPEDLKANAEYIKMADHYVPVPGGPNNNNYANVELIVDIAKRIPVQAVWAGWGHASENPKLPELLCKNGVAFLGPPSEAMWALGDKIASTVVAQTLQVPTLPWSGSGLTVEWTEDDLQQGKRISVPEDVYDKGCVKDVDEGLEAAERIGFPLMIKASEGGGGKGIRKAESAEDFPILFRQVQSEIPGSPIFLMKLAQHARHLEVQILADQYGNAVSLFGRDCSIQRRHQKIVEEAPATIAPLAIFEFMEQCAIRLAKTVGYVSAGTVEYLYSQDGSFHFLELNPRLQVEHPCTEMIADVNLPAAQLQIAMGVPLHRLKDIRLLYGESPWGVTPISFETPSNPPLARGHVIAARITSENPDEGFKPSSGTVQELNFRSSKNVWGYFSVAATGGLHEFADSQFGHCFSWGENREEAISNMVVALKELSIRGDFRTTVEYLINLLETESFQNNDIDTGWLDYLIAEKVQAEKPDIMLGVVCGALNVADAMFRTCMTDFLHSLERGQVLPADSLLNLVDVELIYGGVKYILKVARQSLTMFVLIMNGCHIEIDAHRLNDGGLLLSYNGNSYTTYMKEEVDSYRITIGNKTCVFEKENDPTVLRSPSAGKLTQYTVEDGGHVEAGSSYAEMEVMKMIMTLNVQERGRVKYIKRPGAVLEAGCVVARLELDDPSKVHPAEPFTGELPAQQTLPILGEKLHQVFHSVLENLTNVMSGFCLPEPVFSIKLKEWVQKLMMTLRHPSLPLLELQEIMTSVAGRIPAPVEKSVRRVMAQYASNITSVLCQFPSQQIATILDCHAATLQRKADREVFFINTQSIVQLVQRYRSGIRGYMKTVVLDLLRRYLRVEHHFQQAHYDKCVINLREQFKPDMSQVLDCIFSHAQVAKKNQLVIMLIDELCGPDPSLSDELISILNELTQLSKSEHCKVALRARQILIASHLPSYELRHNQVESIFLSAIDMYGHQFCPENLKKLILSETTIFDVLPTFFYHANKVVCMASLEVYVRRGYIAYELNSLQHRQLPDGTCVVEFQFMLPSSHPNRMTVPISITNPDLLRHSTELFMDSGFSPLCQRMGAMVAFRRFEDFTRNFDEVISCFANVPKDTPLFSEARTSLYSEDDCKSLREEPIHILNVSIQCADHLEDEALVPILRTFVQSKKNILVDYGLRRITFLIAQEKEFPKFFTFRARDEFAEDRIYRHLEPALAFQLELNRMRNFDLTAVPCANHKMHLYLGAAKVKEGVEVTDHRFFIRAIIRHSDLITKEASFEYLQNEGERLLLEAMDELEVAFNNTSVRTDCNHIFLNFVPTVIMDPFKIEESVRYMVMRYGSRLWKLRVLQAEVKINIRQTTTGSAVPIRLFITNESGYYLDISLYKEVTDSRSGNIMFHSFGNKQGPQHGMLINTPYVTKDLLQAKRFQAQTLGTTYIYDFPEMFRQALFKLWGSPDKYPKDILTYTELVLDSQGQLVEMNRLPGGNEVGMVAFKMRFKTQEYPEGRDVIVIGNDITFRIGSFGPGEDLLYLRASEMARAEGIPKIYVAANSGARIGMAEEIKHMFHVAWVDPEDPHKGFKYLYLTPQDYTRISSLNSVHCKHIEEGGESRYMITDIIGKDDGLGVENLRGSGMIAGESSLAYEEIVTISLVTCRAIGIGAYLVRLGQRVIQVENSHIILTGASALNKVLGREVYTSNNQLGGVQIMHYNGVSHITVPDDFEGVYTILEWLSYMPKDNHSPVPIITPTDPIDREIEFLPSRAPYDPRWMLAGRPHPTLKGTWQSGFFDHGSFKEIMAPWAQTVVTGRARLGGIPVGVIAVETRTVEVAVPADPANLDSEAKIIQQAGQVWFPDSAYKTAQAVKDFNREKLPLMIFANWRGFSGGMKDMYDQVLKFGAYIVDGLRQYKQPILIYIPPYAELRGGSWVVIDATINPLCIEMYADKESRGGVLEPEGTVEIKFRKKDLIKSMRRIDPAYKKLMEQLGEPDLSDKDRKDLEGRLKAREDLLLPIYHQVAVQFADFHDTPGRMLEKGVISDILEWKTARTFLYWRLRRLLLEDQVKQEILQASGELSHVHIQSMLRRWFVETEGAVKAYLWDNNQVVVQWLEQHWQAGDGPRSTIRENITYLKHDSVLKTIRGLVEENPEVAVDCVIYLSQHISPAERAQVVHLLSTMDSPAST

As for `CCOc1cc(C(=O)N2CCC3(CC2)CC(=O)c2cc(-c4ccnc(C(=O)O)c4)ccc2O3)cc(OCC)c1-c1cnn(C)c1` [Example 37, 4-(1′-{[3,5-Diethoxy-4-(1-methyl-1H-pyrazol-4-yl)phenyl]carbonyl}-4-oxospiro[chroman-2,4′-piperidin]-6-yl)pyridine-2-carboxylic acid], the inhibition at 1 µM came out at 100% on human ACC1 and 99% at human ACC2.
For `Cn1nc(-c2ccccc2)c2ccc(C(=O)N3CCC4(CC3)CC(=O)c3cc(-c5nnn[nH]5)ccc3O4)cc21` [Example 56, 1′-[(1-Methyl-3-phenyl-1H-indazol-6-yl)carbonyl]-6-(tetrazol-5-yl)spiro[chroman-2,4′-piperidin]-4-one], the inhibition at 1 µM was 99% on human ACC1 and 98% on human ACC2.
Taken in the same sequence, the figures for `CCOc1cc(C(=O)N2CCC3(CC2)CC(=O)c2cc(-c4nnn(COC(=O)C(C)(C)C)n4)ccc2O3)cc(OC)c1-c1cnn(C)c1` [Example 63, (5-{1′-[3-ethoxy-5-methoxy-4-(1-methyl-1H-pyrazol-4-yl)benzoyl]-4-oxospiro[chroman-2,4′-piperidin]-6-yl}-2H-tetrazol-2-yl)methylpivalate] were 93% and 97%.
Take `Cn1cc(-c2ccc3c(c2)C(=O)CC2(CCN(C(=O)c4cc(-c5nnn[nH]5)c5ccn(C6CC6)c5c4)CC2)O3)cn1` [Example 42, 1′-{[1-Cyclopropyl-4-(tetrazol-5-yl)-1H-indol-6-yl]carbonyl}-6-(1-methyl-1H-pyrazol-4-yl)spiro[chroman-2,4′-piperidin]-4-one]: the inhibition at 1 µM was determined as 98% at human ACC1 and 99% on human ACC2.
`CCOc1cc(C(=O)N2CCC3(CC2)CC(=O)c2cc(-c4ccc(C(N)=O)cn4)ccc2O3)cc(OC)c1-c1cnn(C)c1` [Example 77, 6-{1′-[3-ethoxy-5-methoxy-4-(1-methyl-1H-pyrazol-4-yl)benzoyl]-4-oxospiro[chroman-2,4′-piperidin]-6-yl}nicotinamide]: the inhibition at 1 µM on human ACC1 and on human ACC2 was 99% in each case.
In the case of `CCOc1cc(C(=O)N2CCC3(CC2)CC(=O)c2cc(-c4ccc(C(=O)O)cn4)ccc2O3)cc(OCC)c1-c1cnn(C)c1` [Example 71, Sodium 6-{1′-[3,5-diethoxy-4-(1-methyl-1H-pyrazol-4-yl)benzoyl]-4-oxospiro[chroman-2,4′-piperidin]-6-yl}nicotinate], the inhibition at 1 µM on human ACC1 and at human ACC2 was 99% throughout.
In the case of `CCOc1cc(C(=O)N2CCC3(CC2)CC(=O)c2cc(-c4cncc(C(=O)O)c4)ccc2O3)cc(OCC)c1-c1cnn(C)c1` [Example 25, 5-(1′-{[3,5-Diethoxy-4-(1-methyl-1H-pyrazol-4-yl)phenyl]carbonyl}-4-oxospiro[chroman-2,4′-piperidin]-6-yl)pyridine-3-carboxylic acid], the inhibition at 1 µM on human ACC1 was 100%; at human ACC2, 99%.
With `Cc1nn(-c2ccccn2)c2sc(C(=O)N3CCC4(CC3)CC(=O)c3cc(-c5nnn[nH]5)ccc3O4)cc12` [Example 51, 1′-[(3-Methyl-1-pyridin-2-yl-1H-thieno[2,3-c]pyrazol-5-yl)carbonyl]-6-(tetrazol-5-yl)spiro[chroman-2,4′-piperidin]-4-one], the figures for the inhibition at 1 µM at human ACC1 and on human ACC2 were 98% and 89%, respectively.
Turning to `COc1cc(C(=O)N2CCC3(CC2)CC(=O)c2cc(-c4nnn[nH]4)ccc2O3)cc(OC)c1-c1ccccc1` [Example 5], the inhibition at 1 µM came out at 94% at human ACC1 and 97% on human ACC2.
Taken in the same sequence, the figures for `CCOc1cc(C(=O)N2CCC3(CC2)CC(=O)c2cc(-c4nnn[nH]4)ccc2O3)cc(OC)c1-c1cnn(C)c1` [Example 29, 1′-{[3-Ethoxy-5-methoxy-4-(1-methyl-1H-pyrazol-4-yl)phenyl]carbonyl}-6-(tetrazol-5-yl)spiro[chroman-2,4′-piperidin]-4-one] were 99% and 99%.
As to `CCOc1cc(C(=O)N2CCC3(CC2)CC(=O)c2cc(-c4nnn[nH]4)ccc2O3)cc(OCC)c1-c1cnn(C)c1` [Example 12, 1′-{[3,5-Diethoxy-4-(1-methyl-1H-pyrazol-4-yl)phenyl]carbonyl}-6-(tetrazol-5-yl)spiro[chroman-2,4′-piperidin]-4-one], the inhibition at 1 µM turned out to be 100% at human ACC1 and 99% on human ACC2.
In the case of `COc1cc(C(=O)N2CCC3(CC2)CC(=O)c2cc(-c4ccc(C(N)=O)cn4)ccc2O3)cc(OC)c1-c1cnn(C)c1` [Example 68, 6-{1′-[3,5-dimethoxy-4-(1-methyl-1H-pyrazol-4-yl)benzoyl]-4-oxospiro[chroman-2,4′-piperidin]-6-yl}nicotinamide], the inhibition at 1 µM at human ACC1 and at human ACC2 was 99% throughout.
`CCOc1cc(C(=O)N2CCC3(CC2)CC(=O)c2cc(-c4cnn(C)c4)ccc2O3)cc(OC)c1-c1cnn(C)c1` [Example 79, 1′-[3-Ethoxy-5-methoxy-4-(1-methyl-1H-pyrazol-4-yl)benzoyl]-6-(1-methyl-1H-pyrazol-4-yl)spiro[chroman-2,4′-piperidin]4-one]: the inhibition at 1 µM on human ACC1 and at human ACC2 was 99% each time.
